The record followed here is publication PMC12477080, “Polychlorinated biphenyls (PCBs) interact with drug metabolism in vivo” (Archives of Toxicology, 2025).

The subject of the data set is CYP1A2. The data set can be described thus: CYP phenotyping cocktail clinical study: caffeine/paraxanthine metabolic ratio and its association with PCB plasma levels. Here is the method: The participants were ascertained not to have any acute disease by medical history, physical examination, laboratory screening, including hematological and biochemical blood tests, and a 12-lead electrocardiogram. […] The demographic data of the subjects are summarized in Table 1 in the supplemental data. At the enrollment visit, 2 blood samples (9 ml each) were collected into ethylenediaminetetraacetic acid (EDTA)-containing tubes taken from each subject for analyzing the plasma concentrations of PCB congeners and for pharmacogenetic analysis.
Participants stayed fasted from the evening before until 3 h after drug administration. After that, a meal was provided. Water and juice were permitted but alcoholic and caffeinated beverages were not allowed from the evening before drug administration until the last blood sample was taken on the next day. Venous blood samples (9 ml each) were collected through an intravenous catheter immediately before and 0.25, 0.5, 0.75, 1, 1.5, 2, 2.5, 3, 4, 5, 6, 7, 8, and 24 h after drug administration. Blood was drawn into EDTA-coated tubes, centrifuged at 1500 g for 10 min at 4 °C, and plasma samples were subsequently stored at − 80 °C until further analysis. After completely voiding the bladder immediately before drug administration, the participants collected urine from 0 to 24 h after drug administration. After weighing the collected urine, a 10 ml aliquot of each fraction was taken.
Commercially sourced standards and internal standards were used for quantification (see Supplemental Materials). In brief, 20 µl of the plasma samples were protein-precipitated with 80 µl methanol containing all internal standards or were treated for 16 h at 37 °C with 2 µl β-glucuronidase (1,000,000 Units) for deconjugation before protein precipitation with 78 µl methanol containing internal standards. Samples were centrifuged for 20 min, at 4 °C and 17,000 × g, and 40 µl of the supernatants were diluted with 40 µl LC–MS grade water, centrifuged again for 5 min at 4 °C and 17,000 × g and 50 µl supernatant were transferred to LC–MS vials 5 µl of the samples were injected into the LC–MS system.
An Agilent 1290 Infinity II UHPLC coupled with a SCIEX QTRAP6500 + triple quadrupole mass spectrometer was used. […]
Partial areas under the plasma concentration–time curves from 0 to 3 h (AUC0–3 h), from 0 to 4 h (AUC0–4 h), and from 0 to 8 h (AUC0–8 h) were calculated based on measured concentrations by the linear trapezoidal rule without extrapolation. […] Metabolic ratios (MR) were calculated by dividing the partial AUC of the metabolite by the respective partial AUC of the parent drug. […]

As to `Clc1ccc(-c2cc(Cl)c(Cl)cc2Cl)cc1Cl` [PCB118], the “association with CYP1A2 activity in hierarchical generalized mixed model” value (adjusted for co-factors (smoking status, gender, BMI, age)) is “became significant when smoking status was included as a co-factor”. For the same compound, the “proportion of variability in CYP1A2 activity explained” value (linear regression, MR paraxanthine/caffeine on PCB118 plasma concentration) is on record as ~ 15.5%.
